One may read the GI50 as the concentration giving 50% growth inhibition. The TGI is the concentration giving total growth inhibition. Lower therefore signals greater sensitivity of the cells.

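Cells were grown in 96-well plates and exposed to each compound for 48 hours at five concentrations; endpoints were interpolated linearly between bracketing concentrations, or set to the highest concentration if not reached. Here, GI50 denotes the concentration required for 50% inhibition of growth. TGI is the concentration that stops growth completely.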

The values that follow come from PubChem BioAssay (NCI).

Among the test systems are SK-MEL-28 melanoma; M14 melanoma; HOP-92 NSCLC; MOLT-4 leukemia; HOP-62 NSCLC; NCI-H226 lung; ACHN renal; SN12C renal; U251 CNS; SW-620 colon.
Common to all, as to test: DTP human tumour cell line panel, 48 h

With `CC(=O)OC1Oc2ccccc2-c2oc(=O)c(-c3cc(=O)oc4cc(O)ccc34)cc21` (stereo not given), the GI50 in the experiment on SK-MEL-28 melanoma was 34.5 µM; in the experiment on M14 melanoma it was 26.7 µM; with HOP-92 NSCLC, 14.1 µM; with MOLT-4 leukemia it was 4.33 µM; in the experiment on HOP-62 NSCLC, 20.8 µM; in the experiment with NCI-H226 lung, 27.1 µM. Besides, the GI50 in the experiment with ACHN renal is 23.1 µM; in the experiment on SN12C renal, 30.9 µM; in the experiment with U251 CNS, 24 µM; in the experiment on SW-620 colon it was 25.8 µM. Besides, the TGI in the experiment on SK-MEL-28 melanoma was above 100 µM; with M14 melanoma, 83.9 µM; in the experiment on HOP-92 NSCLC, 40.9 µM; in the experiment on MOLT-4 leukemia, 20.1 µM; in the experiment with HOP-62 NSCLC, 55.2 µM; with NCI-H226 lung it was 67.3 µM. Also, the total growth inhibition concentration (TGI) in the experiment with ACHN renal was 79.2 µM; with SN12C renal, above 100 µM; in the experiment on U251 CNS, 65.3 µM; in the experiment with SW-620 colon, 74.4 µM.

On to `CCCCCCCCCC/C=C/CC(=O)SCCNC(=O)CCNC(=O)[C@@H](O)C(C)(C)COP(=O)(O)OP(=O)(O)OCC1OC(n2cnc3c(N)ncnc32)C(O)C1OP(=O)(O)O` (stereo not given in full), for which the concentration for total growth inhibition (TGI) in the experiment with SK-MEL-28 melanoma, in the experiment on M14 melanoma, in the experiment on HOP-92 NSCLC, in the experiment on MOLT-4 leukemia, in the experiment with HOP-62 NSCLC and with NCI-H226 lung was above 10 µM throughout. The TGI in the experiment with ACHN renal, in the experiment on SN12C renal, with U251 CNS and with SW-620 colon was above 10 µM throughout.

In the case of `Cc1c2cccnc2c(C)c2c1c1cc(CO)ccc1n2C`, the GI50 in the experiment on SK-MEL-28 melanoma is 3.01 µM; with M14 melanoma, 2.49 µM; in the experiment on HOP-92 NSCLC, 2.1 µM; in the experiment on MOLT-4 leukemia, 1.64 µM; in the experiment with HOP-62 NSCLC, 1.31 µM; in the experiment with NCI-H226 lung it was 0.264 µM. Also, the GI50 was 0.937 µM in the experiment on ACHN renal, 2.08 µM with SN12C renal, 1.93 µM in the experiment with U251 CNS and 1.25 µM in the experiment on SW-620 colon. Moreover, the TGI is 10.9 µM with SK-MEL-28 melanoma; 10.4 µM in the experiment with M14 melanoma; 7.31 µM in the experiment with HOP-92 NSCLC; 22.5 µM in the experiment on MOLT-4 leukemia; 6.52 µM in the experiment with HOP-62 NSCLC; 1.33 µM in the experiment on NCI-H226 lung. In addition, the TGI in the experiment on ACHN renal came out at 6.89 µM; in the experiment with SN12C renal, 40.3 µM; in the experiment with U251 CNS, 11 µM; in the experiment with SW-620 colon it was 14.5 µM.

With `COC(=O)c1cc2c3ccccc3n(C(C)=O)c2cn1`, the concentration for total growth inhibition (TGI) in the experiment with SK-MEL-28 melanoma, with M14 melanoma, in the experiment with HOP-92 NSCLC, in the experiment with MOLT-4 leukemia, in the experiment on HOP-62 NSCLC and in the experiment with NCI-H226 lung was above 100 µM in each case. In addition, the TGI in the experiment on ACHN renal, in the experiment on SN12C renal, in the experiment on U251 CNS and in the experiment with SW-620 colon was above 100 µM in each case.

`O=S(=O)([O-])c1ccc2c(c1)-c1nc-2nc2[n-]c(nc3nc(nc4[n-]c(n1)c1ccc(S(=O)(=O)[O-])cc41)-c1cc(S(=O)(=O)[O-])ccc1-3)c1ccc(S(=O)(=O)[O-])cc21.[Cu+2].[Na+]`: the GI50 was above 100 µM in the experiment on SK-MEL-28 melanoma; above 37.4 µM with M14 melanoma; 38.9 µM in the experiment on HOP-92 NSCLC; 2.19 µM with MOLT-4 leukemia; above 100 µM in the experiment on HOP-62 NSCLC; above 100 µM in the experiment with NCI-H226 lung. In addition, the GI50 is above 74.3 µM in the experiment with ACHN renal, above 100 µM in the experiment on SN12C renal, 40.3 µM with U251 CNS and 10.8 µM in the experiment with SW-620 colon. Further, the TGI in the experiment on SK-MEL-28 melanoma, in the experiment with M14 melanoma, in the experiment with HOP-92 NSCLC, with MOLT-4 leukemia, in the experiment on HOP-62 NSCLC and with NCI-H226 lung was above 100 µM each time. For the same molecule, the TGI with ACHN renal was above 100 µM; in the experiment on SN12C renal it was above 100 µM; in the experiment with U251 CNS, above 100 µM; in the experiment with SW-620 colon, above 71 µM.

As for `Cc1nnc(S(=O)(=O)c2ccc(N=Nc3c(N)nc(N)nc3N)cc2)s1`, the concentration for total growth inhibition (TGI) with SK-MEL-28 melanoma, in the experiment on M14 melanoma, in the experiment on HOP-92 NSCLC, with MOLT-4 leukemia, in the experiment on HOP-62 NSCLC and in the experiment on NCI-H226 lung was above 100 µM in each case. In addition, the TGI in the experiment with ACHN renal, in the experiment with SN12C renal, in the experiment with U251 CNS and in the experiment on SW-620 colon was above 100 µM in each case.

As to `CC(C)(C)C(=O)OCOP(=O)(OCOC(=O)C(C)(C)C)C1CCCN(O)C1=O` (stereo not given), the concentration for 50% growth inhibition (GI50) in the experiment on SK-MEL-28 melanoma was 0.321 µM; in the experiment with M14 melanoma, 0.693 µM; in the experiment on HOP-92 NSCLC, 0.695 µM; in the experiment on MOLT-4 leukemia, 0.431 µM; in the experiment with HOP-62 NSCLC it was 0.487 µM; in the experiment with NCI-H226 lung, 0.996 µM. Moreover, the GI50 is 0.34 µM in the experiment on ACHN renal, 0.334 µM with SN12C renal, 0.342 µM in the experiment on U251 CNS and 0.493 µM in the experiment with SW-620 colon. For the same molecule, the TGI in the experiment with SK-MEL-28 melanoma was found to be 1.14 µM; with M14 melanoma, 14.1 µM; in the experiment on HOP-92 NSCLC it was 51.5 µM; in the experiment on MOLT-4 leukemia, 2.69 µM; with HOP-62 NSCLC it was 6.63 µM; with NCI-H226 lung, 9.62 µM. For the same molecule, the concentration for total growth inhibition (TGI) came out at 7.97 µM in the experiment with ACHN renal, 14.1 µM with SN12C renal, 5.22 µM in the experiment on U251 CNS and 42.6 µM in the experiment with SW-620 colon.

Take `S=C(N/N=C/c1ccco1)NC12CC3CC(CC(C3)C1)C2`: the TGI in the experiment with SK-MEL-28 melanoma, with M14 melanoma, in the experiment with HOP-92 NSCLC, with MOLT-4 leukemia, in the experiment with HOP-62 NSCLC and in the experiment with NCI-H226 lung was above 100 µM in each case. The TGI in the experiment with ACHN renal, in the experiment with SN12C renal, in the experiment with U251 CNS and with SW-620 colon was above 100 µM throughout.
